The assay concerns the target cAMP-dependent protein kinase (PKA) (Homo sapiens, UniProt P22694+P17612+P22612). Put plainly: Inhibition of PKA (unknown origin). It counts as protein assay.

Turning to `Cc1cc(C(=O)Nc2ccncc2)c(C)o1`, the Ki amounted to 20000 µM.

In turn, `N#Cc1c(N2CCCC2)n[nH]c1N` came in with a Ki of 5000 µM. In the case of `N#Cc1c(N)ccc(/C=C2/CCCNC2)c1Cl` it was 85 µM; in that of `COC1(CNC(=O)N2CCN(c3ccncc3C)CC2)CCCS(=O)(=O)C1` (stereo unspecified), 354.3 µM; in that of `N[C@H]1CCN(Cc2cccc(-c3ccc4c(O)nccc4c3)c2)C1`, 0.74 µM. In the case of `N#Cc1c(N)ccnc1C=C1CCNCC1` it was 6379 µM.

Consider `N#Cc1cc(-c2cccc(C3CNCCO3)c2)ccc1N` (stereo unspecified), for which the Ki amounted to 2101 µM. Consider `NCCC1CN(C(=O)c2ccc(C(N)=O)cc2)c2ccccc21` (stereo unspecified), for which the Ki stood at 5000 µM.

The compound `N#Cc1cc(-c2cccc(C3COCCN3)c2)ccc1N` (stereo unspecified) registered a Ki of 955 µM. `COCC1CN=C(N2CCN(c3ccncc3Cl)CC2)N1.I` (stereo unspecified) yielded a Ki of 139.3 µM.

With `CC1(CS(=O)(=O)N2CCc3c(sc(N)c3C#N)C2)CC1(F)F` (stereo unspecified), the Ki came to 4743 µM. In the case of `N#Cc1cc(-c2cccc(C3(CN)CCOCC3)c2)ccc1N` it was 390.2 µM; in that of `COc1cc(NCCNc2ccnc(N)c2C#N)cc(OC)c1`, 588 µM. In the case of `CN(C)Cc1ccc(F)c(-c2ccc3c(C#N)c(N)[nH]c3c2)c1` it was 174.4 µM; in that of `N[C@@H]1CCN(Cc2cccc(-c3ccc4c(O)nccc4c3)c2)C1`, 3 µM. The same measure for `O=c1[nH]ccc2cc(-c3cccc(Cn4cccn4)c3)ccc12`: 154.7 µM; for `CCn1cc(-c2csc3c(=O)[nH]ccc23)cn1`: 1423 µM; for `NC1C=C(C(F)(F)F)C=NC1=O` (stereo unspecified): 10000 µM. Compound `COCC1CCC(NC(=O)c2ccc3c(c2)CCNC3=O)CC1` (stereo unspecified) displayed a Ki of 6219 µM. Consider `N#Cc1cc(-c2cccc(CC(N)CC3CC3)c2)ccc1N` (stereo unspecified), for which the Ki was 540 µM. In the case of `NC1CCN(Cc2cccc(-c3ccc4c(O)nccc4c3)c2)C1` (racemic) it was 0.744 µM.

For orientation: Ki means the dissociation constant of the complex between target and ligand, obtained from inhibition or displacement. The low end stands for a stronger hold on the target, the high end for a looser hold on the target.

The values are drawn from ChEMBL document CHEMBL5223118, “Magnet for the Needle in Haystack: "Crystal Structure First" Fragment Hits Unlock Active Chemical Matter Using Targeted Exploration of Vast Chemical Spaces” (J Med Chem, 2022).
